Source: paper PMC8962522, “Direct interaction of TrkA/CD44v3 is essential for NGF-promoted aggressiveness of breast cancer cells” (Journal of Experimental & Clinical Cancer Research : CR, 2022)

What was measured:
[1] = Body weight in xenografted SCID mice; type: in vivo; settings: 10 mice per group; injections near the tumor
Experimental: (§1) MDA-MB-231 cells (2 × 10^6) were subcutaneously injected into the flanks of six-week-old female SCID mice. One month after injection, the mice were randomized into 2 groups and injected near the tumor with CD44v3 mimetic peptide 4 (P4) or not (control) five times in a 3-day interval. Tumor volume was determined throughout the experiment by measuring the length (l) and width (w) and was calculated as π/6 × l × w × […]. Animals were sacrificed using isoflurane anesthesia when the tumors reached a similar size, and the organs were immediately removed and stored in liquid nitrogen.
Fig. 6 CD44v3 mimetic peptide 4 blocks MDA-MB-231 tumor growth and metastasis. Schematic representation of the experimental setup for MDA-MB-231 tumor growth assessment in SCID mice (A). Body weight (B) and tumor volume (C) were measured following CD44v3 mimetic peptide administration (10 mice per group). Schematic representation of the experimental setup for MDA-MB-231 metastasis assessment in SCID mice (D). Percentage of metastasis-positive lungs, brains and livers (E) after scramble peptide or CD44v3 mimetic peptide 4 treatment (3 mice/group) or (F) after TrkA-H112 mutant treatment (6 mice) compared with HA-TrkA cells (5 mice). ** p < 0.01; ns, nonsignificant. […]

[2] = tested on: MDA-MB-231 cell metastasis; test: Metastasis of MDA-MB-231 xenografts (PCR of human microglobulin); type: in vivo, SCID mice; settings: lung, brain and liver; mice sacrificed when primary tumors reached the same size
Experimental: as §1
Each organ was placed in a Precellys tube with QIAzol (1 mL) for lysis using a Precellys machine (3×). […]
To assess the role of TrkA/CD44v3 in vivo, SCID mice were injected with MDA-MB-231 cells to generate xenografts. Primary tumor development and metastasis (to the lung, brain and liver) were analyzed (Fig. 6). […] The development of primary tumors was measured throughout the experiments. […] We also assessed the metastatic burden. […] Micrometastases were detected at the end of the experiment by PCR of human microglobulin in xenograft mice treated with or without the CD44v3 mimetic peptide (Fig. 6E). […]
Fig. 6 CD44v3 mimetic peptide 4 blocks MDA-MB-231 tumor growth and metastasis. […] Body weight (B) and tumor volume (C) were measured following CD44v3 mimetic peptide administration (10 mice per group). […]

IDDDEDFISST [Peptide 4, mimetic peptide 4 (…) corresponding to the C-terminal region of CD44v3]
body weight (in words) [1]: did not affect the overall body weight of the mice
metastatic burden (in words) [2]: decreased the metastatic burden at each analyzed location
